Values quoted from earlier work as cited in US11819781B2, “Device for solid phase extraction and method for use thereof” (Waters Technologies Corporation, priority 2014, dated 2023).

Details: analyte characteristics; for Log P: octanol:water

pKa | Log P | SMILES
9.7 | 4.8 | CN(C)CCC=C1c2ccccc2CCc2ccccc21 [Amitriptyline]
 | 1.1 | C[C@H]1C[C@H]2[C@@H]3CCC4=CC(=O)C=C[C@]4(C)[C@@]3(F)[C@@H](O)C[C@]2(C)[C@@]1(O)C(=O)CO [Betamethasone]
 | 4.4 | CNCCCC1c2ccccc2C=Cc2ccccc21 [Protriptyline]
